Assay results taken from US20160237450A1, “METHOD FOR ENHANCING DROUGHT TOLERANCE IN PLANTS” (Plant Response Biotech S.L., priority 2015, published 2016).

Assays:
Format in all cases: in vivo
kohlrabi plants = test: Yield production without drought stress, kohlrabi; settings: 1 g/l spray every 4 weeks for 3 months, no drought stress
Method: (§1) In order to determine the plant yield productivity under normal conditions, ‘Sabrina’, ‘Candonga’ and ‘Fortuna’ strawberry varieties, leek, lettuce, “Iceberg” variety, broccoli “Parthenon” variety, celery or kohlrabi plants, were grown under standard production conditions and 120 plants of each variety per treatment (where the treatment was a control comprising standard watering or 1 g/L of TMAO di-hydrate spray every four weeks) were analyzed. Plants were located in four (4) different positions for each group of 30 plants from the same treatment. Fruits, leaves or roots were harvested from individual plants and total weight was determined for each plant.
(§2) Root or leaves yield was determined in the plants treated with 1 g/l of TMAO di-hydrate or water as described above in order to evaluate the trade-off costs of the treatment with no drought stress.

corn plants ('FAO700') = test: Corn grains per cob under limited water; settings: 30% water
Method: (§3) In order to determine the drought or drought stress tolerance after seed treatments with TMAO di-hydrate and germination in the presence of TMAO di-hydrate, barley “Hispanic” seeds, corn “FAO700” seeds, and “Sambro” sunflower seeds were surface sterilized for 3 minutes in ethanol 70%, then rinsed twice and finally included in a pre-treatment solution of 1 g/L TMAO di-hydrate solution (or just water) under shaking for 3 hours at a dose of 1 litre per Kg of seeds. Then, the seeds were sown in randomized plots of 10 sqm in a surface of 2.000 sqm. Chlorophyll content was measured 1 month before harvest. In corn irrigation was applied in half of the plots while the other half only received an initial establishment watering. The barley plots received 200 l of rain per m^2 through the growing season. Some of the plots received a second spray treatment with 1 g/liter of TMAO. […] At least 3 independent plants were treated per experiment.
(§4) TMAO di-hydrate applied exogenously which increases the endogenous content of TMAO as if the plants were overexpressing an FMO protein at least 4 times increases plant production in corn under limited water irrigation. ‘FAO700’ corn seeds were sown, grown and treated as described above. Spray treatments with 1 g/L TMAO di-hydrate increased plant grain production.

leek plants = test: Yield production without drought stress, leek; settings: 1 g/l spray every 4 weeks for 3 months, no drought stress
Method: as §1, §2

[1] = test system: tomato plants ('Rio Grande'); test: Tomato fruit production under limited water irrigation; settings: 30% water irrigation; 1 g/L spray every 4 weeks
Excerpt: as §4, with “tomato” for “corn”, “‘Rio Grande’ tomato” for “‘FAO700’ corn”, “described.” for “described above.”, “both fruit size and fruit” for “plant grain”

garlic plants = test: Yield production without drought stress, garlic; settings: 1 g/l spray every 4 weeks for 3 months, no drought stress
Method: as §2

[2] = TMAO accumulation in barley leaves after spray (NMR); settings: 1 g/l spray formulated with 0.1% C8-C10 Alkylpolysaccharide, 1 day post spray
Method: At least three independent plants were treated per experiment.
Leaves were harvested and TMAO was determined by NMR.

sunflower plants = test: Sunflower field chlorophyll content and seed production after seed treatment; settings: seed treatment 1 g/l/Kg, natural stress
Method: as §3
TMAO di-hydrate applied exogenously which increases the endogenous content of TMAO as if the plants were overexpressing an FMO protein at least 4 times increases plant production in sunflower plants grown in the field without external irrigation. ‘Sambra” sunflower seeds were sown, grown and treated as described above. Seed treatment (1 g/l/Kg TMAO) increased plant chlorophyll content and seed production. […] Both chlorophyll and weight differences between control and TMAO groups are statistically significant. Relative chlorophyll content values are obtained by optical absorbance in two different wavebands: 653 nm (chlorophyll) and 931 nm (Near Infra-Red).

Structure (SMILES): C[N+](C)(C)[O-].O.O [TMAO di-hydrate, trimethylamine N-oxide di-hydrate]
- Yield production, % Control (kohlrabi plants): 103%
- AVERAGE NUMBER OF GRAINS PER COB (corn plants ('FAO700'); 1 g/L seed treatment): 542.89 ± 41.22
- AVERAGE NUMBER OF GRAINS PER COB (corn plants ('FAO700'); 1 g/L spray): 511.34 ± 19.70
- increase in total number of grains per corn cob compared to 100% water irrigation (corn plants ('FAO700'); 1 g/L, row 4): 2%
- Yield production, % Control (leek plants): 102%
- AVERAGE WEIGHT (grams/fruit) [1]: 76.73 ± 17.67 grams/fruit
- increase of fruit production over untreated plants with 30% irrigation [1]: 45%
- Yield production, % Control (garlic plants): 109%
- TMAO % Control [2]: 822%
- TMAO (μM) in leaves [2]: 4633.2 µM
- % GAIN/LOSS RESPECT TO THE CONTROL, chlorophyll content (sunflower plants): 30%
- % GAIN/LOSS RESPECT TO THE CONTROL, weight of seeds from 1 plant (sunflower plants): 77.7%
- C[…] (OD663/OD931, AVERAGE VALUE) (sunflower plants): 21.17 ± 0.54
- WEIGHT (GRAMS) OF SEEDS FROM 1 PLANT, AVERAGE VALUE (sunflower plants): 161.3 ± 13.1 GRAMS
